The record followed here is patent publication US8673313B2, “Cell penetrating peptides and its use fused to biomolecules with therapeutic action” (priority 2007, dated 2014).

The subject of assay [1] is J774 cells. In words: Western blot: internalization of the cargo protein E7 to the cell. In kind it is cell-based. Conditions: 25 μM protein, J774, 4 hours at 37° C., FIG. 5. The method, then: The cells J774 grown overnight at 37° C. and 5% of CO2 with RPMI 1640, 10% inactivated calf fetal serum and 2 mM de glutamine. After that, the cell were aliquoted in tubes with 5×10^6 cells each and incubated with 25 μM of fusion protein LALF-E7, 25 μM of protein E7 and PBS during 4 hours at 37° C. The sedimentation of the cells was made by a centrifugation to 1000 rpm by 10 minutes. Wash pellet in three changes of PBS. Cells were ruptured in 100 μL of RIPA buffer (Promega) mixed in vortex per 10 second and 2 min in ice. The sedimentation of the broken cells was made by a centrifugation to 12000 rpm by 15 minutes. Protein concentration was determined to the cell extract and rum 10 μg of total protein in 15% polyacrilamide gel. Subsequently the gel was transferred to a nitrocellulose membrane. The membrane was incubated for 2 hours at room temperature with an IgG goat polyclonal antibody anti-E7 HPV 16 (Santa Cruz) diluted in PBS (1:100). Wash in three changes of PBS. Subsequently, the membrane was incubated for 45 minutes at room temperature and in a dark room with an anti-goat IgG peroxidase conjugate (Sigma) diluted in PBS (1:5000). Wash in three changes of PBS. Finally the ECL system from Amersham Pharmacia Biotech was used.
In general terms: In western blotting, separated proteins are transferred to a membrane and probed.

Assay [2] deals with J774 cells. As to the kind of experiment: Fluorescence microscopy: internalization of the cargo protein E7 to the cell. The class given is cell-based. Conditions: 1.66 μM protein, J774, 37° C., 30 min, 1 hour and 2 hours, FIG. 4. As to the method:
Cells J774 grown on sterile glass cover slips of 22 mm overnight at 37° C. and 5% of CO2 with RPMI 1640, 10% inactivated calf fetal serum and 2 mM de glutamine. Then, different glass cover slips incubated with 1.66 μM fusion protein LALF-E7, 1.66 μM of protein E7 and PBS (as negative control) a 37° C. per 30 min, 1 hour and 2 hours. CasKi cells (human cells expressing HPV 16) grown as positive control in the same experimental conditions.
After incubation the cells were washed briefly with PBS and fix cells by 4% paraformaldehide per 20 min at room temperature. Wash in three changes of PBS. The permeabilization of the cells was with 0.5% Tritón X-100 for 15 min a room temperature. Wash in three changes of PBS. Then, the cells were incubating for 1 hour in 1% blocking SFB in PBS at room temperature. Wash in three changes of PBS. Cells were incubated with goat IgG anti E7/HPV 16 polyclonal antibody (Santa Cruz) diluted in PBS 1:50. Wash extensively with PBS. Incubate with anti-goat-fluorescein IgG polyclonal antibody (Santa Cruz) diluted in PBS 1:50 for 45 minutes in a dark chamber. Wash extensively with PBS. Mount cover slip with aqueous mounting medium. Examine using a fluorescence microscope with appropriate filters.

The subject of assay [3] is cells with different histological origins (J774, CasKi, HeLa, TC-1, Hep2). As to the kind of experiment: Internalization of CPP LALF or their analogues to cells with different histological origins (fluorescence microscopy). The class given is cell-based. Particulars: 25 or 50 μM biotinylated peptide, 37° C., streptavidin-fluorescein, FIG. 1. As to the method: (§1) Different cellular lines were used in this realization (Table 1). Cells grown on sterile glass cover slips of 22 mm overnight at 37° C. and 5% of CO2 with RPMI 1640, 10% inactivated calf fetal serum and 2 mM de glutamine. Then, 25 or 50 μM de CPP LALF or their biotinylated analogues L-2 y L-20 added and incubated at 37° C. and 4° C. in different times (10 min, 20 min, 30 min, 1 h y 2 h). Wash briefly with PBS and fix cells by 4% paraformaldehide per 20 min at room temperature. Wash in three changes of PBS. The permeabilization of the cells was with 0.5% Tritón X-100 for 15 min a room temperature. Wash in three changes of PBS. The cells were incubating for 1 hour in 1% blocking SFB in PBS at room temperature. Wash in three changes of PBS. Incubate with 1:50000 in PBS streptavidin-fluorescein for 45 minutes in a dark chamber. Wash extensively with PBS. Mount cover slip with aqueous mounting medium. Examine using a fluorescence microscope with appropriate filters.
(§2) As a negative control were used not related biotinylated and cells without peptide.

A further assay deals with murine splenocytes. As to the kind of experiment: Internalization of the analogues L-2 and L-20 to murine splenocytes (confocal microscopy). Conditions: 0.8 mg biotinylated peptide (278-280 μM), 37° C., 10 min to 18 h, FIG. 2. In kind it is cell-based, mice C57BL/6. As to the method:
For the splenocytes isolation, the mice C57BL/6 were sacrificed by break-up of the cervical and the splenocytes were removed aseptically. The cellular suspensions of the animals by each group met in pool and they were homogenized smoothly. The splenocytes were washed and the erythrocytes were lysed with a solution of NH4C10.83%. After washing, the splenocytes are divided en different tubes with 20×10^6 of cells in 10 mL of fresh medium RPMI 1640 supplemented with 7% de fetal bovine serum. Each preparation was incubated with 0.8 mg of the biotinylated peptides L-2 (278 μM) y L-20 (280 μM) in different times: 10 min, 30 min, 1 h and 18 h. The incubations were at 37° C. and 5% de CO2. The cells on sterile glass cover slips were fixed, permeabilized and treated with propidium Iodide for to stain the nucleus and with streptavidine-fluorescein for detection of peptides inside the cells.

Assay [4] relates to J774 cells. As to the kind of experiment: Fluorescence microscopy: internalization of the cargo protein GFP to the cell. Particulars: FIG. 6. In kind it is cell-based. The text has this: The protein produced in E. coli from the recombinant fusion LALF-GFP (GFP-English, green fluorescence protein) was used to verify that the CPP LALF or its analogues could internalize the cargo protein. The GFP (GenBank Accession #U55762) was obtained using the polymerase chain reaction from plasmid pEGFP-N1 of Clontech using oligonucleotides with SEQ ID N0. 11 and 12. Both oligonucleotides have restricted sites used for cloning (HindIII-sense and BamHI-antisense).
For the construction of recombinant fragment, synthetic LALF and GFP gene obtained by PCR were inserted with the T4 ligase in the vector pM238, similar as in the example III. The recombinant clone is identified with the SEQ ID N0. 13 and 14.
With the recombinant and purified LALF-GFP protein was performed an similar experiment to the example V, but in this case the cells J774 incubated with LALF-GFP, LALF biotinilade, GFP and PBS.

Assay [5] relates to J774 cells. As to the kind of experiment: Internalization of CPP LALF in J774 cells at 4° C. (fluorescence microscopy). Conditions: J774, 4° C., 10 min incubation, FIG. 1. In kind it is cell-based. As to the method:
as §1, §2

Ends that are not written are not given here.

As to “E7: recombinant protein E7 of HPV 16, unfused comparator [reference compound]”, the “detection of protein in cell extract by anti-E7 antibody (Western blot)” value in the assay on J774 cells [1] is recorded as “not detected any recognition”. Also, the “internalization of E7 (fluorescent cells, anti-E7 antibody)” value in the assay with J774 cells [2] is reported as “Negative results”. Take “L-12: analogous peptide of LALF 32-51 with alanine substitution in the position 12 (SEQ ID N0. 4) (HYRIKPTFRRLAWKYKGKFW; Artificial Sequence Description Analogue L-12)”: the internalization into cells entry in assay [3] is “similar”. Further, in the assay on murine splenocytes, the internalization into splenocytes result is reported as “similar”. With “L-20: analogous peptide of LALF 32-51 with alanine substitution in the position 20 (SEQ ID N0. 5) (HYRIKPTFRRLKWKYKGKFA; Artificial Sequence Description Analogue L-20)”, the internalization into splenocytes entry with murine splenocytes is “internalized in a short times of incubation (30 min)”. For the substance “LALF-biotinilado: biotinylated CPP LALF peptide used as comparator in the GFP experiment (HYRIKPTFRRLKWKYKGKFW; also: biotinylated, site not given here; UniProt P07086 32-51, looked up, fragment)”, in the assay with J774 cells [4], the “internalization of GFP (fluorescent cells)” value is given as “fluorescent cells”. Turning to “LALF: peptide corresponding to the region 32-51 of LALF protein (SEQ ID N0. 1) (HYRIKPTFRRLKWKYKGKFW; Artificial Sequence Description Synthetic Gen CPP LALF)”, the internalization into cells result in assay [3] was “internalized in different cell types and short incubation times (30 min)”; with J774 cells [5] it was “internalized in the cells J774 with only 10 min of the incubation at 4 °C”. In the assay on murine splenocytes, the internalization into splenocytes result is listed as “similar”.
